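96-well plates; 48 h exposure; 5 concentrations. Endpoints by linear interpolation between flanking doses. Not reached: highest tested concentration assigned. GI50 is the concentration that inhibits growth by half.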 Activity calls are given as the source filed them. Rule as the data show it: active = GI50 up to about 1.1 µM and inactive = higher.
What was measured:
Test in all cases: inhibition of tumour cell growth, NCI panel, 48 h
[1] = test system: HT-29
[2] = test system: HCT-15
[3] = test system: CAKI-1
[4] = test system: MOLT-4
[5] = test system: SW-620
[6] = test system: SK-MEL-2
[7] = test system: NCI-H522
[8] = test system: SR
[9] = test system: EKVX
[10] = test system: OVCAR-5
[11] = test system: LOX IMVI
[12] = test system: Malme-3M
[13] = test system: NCI-H226
[14] = test system: UO-31
[15] = test system: SF-295
[16] = test system: HCT-116
[17] = test system: OVCAR-4
[18] = test system: U-251
[19] = test system: SNB-75
[20] = test system: RXF 393

SMILES	GI50 [1]	GI50 [2] [µM]	GI50 [3]	GI50 [4]	GI50 [5]	GI50 [6]	GI50 [7]	GI50 [8]	GI50 [9]	GI50 [10]	GI50 [11]	GI50 [12]	GI50 [13]	GI50 [14]	GI50 [15]	GI50 [16]	GI50 [17]	GI50 [18]	GI50 [19]	GI50 [20]
COc1ccc(-c2c3ccccc3c(-c3ccc(OCCCCCBr)cc3)c3ccccc23)cc1	> 100 µM (inactive)	> 100	> 100 µM (inactive)	> 100 µM (inactive)	> 100 µM (inactive)	> 100 µM (inactive)	> 100 µM (inactive)	> 100 µM (inactive)	> 100 µM (inactive)	> 100 µM (inactive)	> 100 µM (inactive)	> 100 µM (inactive)	> 100 µM (inactive)	> 100 µM (inactive)	> 100 µM (inactive)	> 100 µM (inactive)	> 100 µM (inactive)			
O=C(N/N=C\c1cccc2ccccc12)Nc1ccccc1	> 100 µM (inactive)	> 100	> 100 µM (inactive)	> 100 µM (inactive)	> 100 µM (inactive)	> 100 µM (inactive)		> 100 µM (inactive)		> 100 µM (inactive)	> 100 µM (inactive)	> 100 µM (inactive)	> 100 µM (inactive)	> 100 µM (inactive)	> 100 µM (inactive)	> 100 µM (inactive)	> 100 µM (inactive)	> 100 µM (inactive)	> 100 µM (inactive)	> 100 µM (inactive)
CC(C)NC(=O)OCc1c2c(n(C)c1COC(=O)NC(C)C)-c1ccccc1CC2	15.2 µM (inactive)	14	9.14 µM (inactive)	2.61 µM (inactive)	9.2 µM (inactive)	14.5 µM (inactive)	5.32 µM (inactive)		14.9 µM (inactive)	17.2 µM (inactive)	9.31 µM (inactive)	5.51 µM (inactive)	11.9 µM (inactive)	14.8 µM (inactive)	15.9 µM (inactive)	10 µM (inactive)	15 µM (inactive)	9.18 µM (inactive)	14.1 µM (inactive)	12.5 µM (inactive)
NS(=O)(=O)C1CCCCC1C(=O)NNC(=O)C(=O)Nc1nnc(S)[nH]1 (stereo unspecified)	> 100 µM (inactive)	> 100	> 100 µM (inactive)	> 100 µM (inactive)	> 100 µM (inactive)	> 100 µM (inactive)	> 100 µM (inactive)	> 100 µM (inactive)	> 100 µM (inactive)	> 100 µM (inactive)	> 100 µM (inactive)		> 100 µM (inactive)	> 100 µM (inactive)	> 100 µM (inactive)	> 100 µM (inactive)	> 100 µM (inactive)	> 100 µM (inactive)	> 100 µM (inactive)	> 100 µM (inactive)
CO/N=C1/c2sccc2[C@H](NC(=O)C(F)(F)F)[C@@H]1O	> 100 µM (inactive)	> 100	> 100 µM (inactive)	> 100 µM (inactive)	> 100 µM (inactive)	> 100 µM (inactive)		> 100 µM (inactive)	> 100 µM (inactive)	> 100 µM (inactive)	> 100 µM (inactive)	> 100 µM (inactive)	> 100 µM (inactive)	> 100 µM (inactive)	> 100 µM (inactive)	> 100 µM (inactive)	> 100 µM (inactive)	> 100 µM (inactive)	> 100 µM (inactive)	> 100 µM (inactive)
CCCOC1OC(CS(=O)(=O)O)C(OC(C)=O)C(OC(C)=O)C1OC(C)=O (stereo unspecified)	> 100 µM (inactive)	> 100	> 100 µM (inactive)	> 100 µM (inactive)	> 100 µM (inactive)	> 100 µM (inactive)		> 100 µM (inactive)		> 100 µM (inactive)	> 100 µM (inactive)	> 100 µM (inactive)	> 100 µM (inactive)	> 100 µM (inactive)	> 100 µM (inactive)	> 100 µM (inactive)	> 100 µM (inactive)	> 100 µM (inactive)	> 100 µM (inactive)	> 100 µM (inactive)
COC(=O)Cc1c(-c2c(CC(=O)OC)c3ccccc3n2C2OC(COC(C)=O)C(OC(C)=O)C(OC(C)=O)C2OC(C)=O)[nH]c2ccccc12 (stereo unspecified)	> 100 µM (inactive)	> 100	> 100 µM (inactive)	> 100 µM (inactive)	> 100 µM (inactive)	> 100 µM (inactive)	52 µM (inactive)	> 100 µM (inactive)	> 100 µM (inactive)	> 100 µM (inactive)		> 100 µM (inactive)		> 100 µM (inactive)	90.8 µM (inactive)	> 100 µM (inactive)	> 100 µM (inactive)	> 100 µM (inactive)		
CC(=O)CC(=O)CCC(=O)O [SUCCINYLACETONE]	> 100 µM (inactive)	> 100	> 100 µM (inactive)	57.3 µM (inactive)	> 100 µM (inactive)	> 100 µM (inactive)	> 100 µM (inactive)	> 100 µM (inactive)	> 100 µM (inactive)	> 100 µM (inactive)	> 100 µM (inactive)	> 100 µM (inactive)	> 100 µM (inactive)	> 100 µM (inactive)	> 100 µM (inactive)	> 100 µM (inactive)		> 100 µM (inactive)	< 0.01 µM (active)	> 100 µM (inactive)
Oc1ccc(/C=C/c2cc(O)cc(O)c2)cc1 [RESVERATROL]	24.3 µM (inactive)	> 100	42.2 µM (inactive)	7.23 µM (inactive)	> 100 µM (inactive)	86.3 µM (inactive)		53.1 µM (inactive)	81.5 µM (inactive)	> 100 µM (inactive)			39.9 µM (inactive)	35.7 µM (inactive)	44 µM (inactive)		> 100 µM (inactive)	> 100 µM (inactive)	95.1 µM (inactive)	40.9 µM (inactive)
Cc1ccc2c(=O)c3ccccc3sc2c1	77.3 µM (inactive)		45.4 µM (inactive)	72.8 µM (inactive)	> 100 µM (inactive)		> 100 µM (inactive)	79.4 µM (inactive)	55.2 µM (inactive)	> 100 µM (inactive)	> 100 µM (inactive)	> 100 µM (inactive)	> 100 µM (inactive)	> 100 µM (inactive)		> 100 µM (inactive)	> 100 µM (inactive)	> 100 µM (inactive)		> 100 µM (inactive)
CCCCCCCCCCCCCCCC(=O)OC1C(O)C(CO)OC(OC)C1NC(=O)N(CCCl)N=O (stereo unspecified)	12.8 µM (inactive)	23.7	32 µM (inactive)	3.08 µM (inactive)	10.9 µM (inactive)	23.9 µM (inactive)	10.7 µM (inactive)	4.46 µM (inactive)	20.1 µM (inactive)	16.5 µM (inactive)	11.4 µM (inactive)		16.6 µM (inactive)	15.2 µM (inactive)	10.6 µM (inactive)	14.3 µM (inactive)	20.6 µM (inactive)	5.22 µM (inactive)	12 µM (inactive)	
Cc1ccc(S(=O)(=O)NCCCSCCSCCCN)cc1	> 100 µM (inactive)	> 100		> 100 µM (inactive)	> 100 µM (inactive)		> 100 µM (inactive)	> 100 µM (inactive)			> 100 µM (inactive)		> 100 µM (inactive)	> 100 µM (inactive)	> 100 µM (inactive)	> 100 µM (inactive)	> 100 µM (inactive)	> 100 µM (inactive)	> 100 µM (inactive)	> 100 µM (inactive)
C=CCn1c(=O)c(Br)nn(CCOCP(=O)(OCC)OCC)c1=O		> 100	> 100 µM (inactive)	> 100 µM (inactive)	> 100 µM (inactive)	> 100 µM (inactive)	> 100 µM (inactive)	> 100 µM (inactive)	> 100 µM (inactive)	> 100 µM (inactive)	> 100 µM (inactive)	> 100 µM (inactive)	> 100 µM (inactive)	> 100 µM (inactive)				> 100 µM (inactive)	> 100 µM (inactive)	> 100 µM (inactive)

— ChEMBL document CHEMBL1201862, “PubChem BioAssay data set” (2004)
